{"source": "patent US6933322B2", "about": "“Substituted naphthylenes for the treatment of non-insulin dependent diabetes mellitus” (Wyeth, priority 2002, dated 2005)", "key": {"[1]": {"tested_on": "hepatocytes isolated and cultured from obese Zucker (fa/fa) rats", "experiment": "Inhibition of glucose output from hepatocytes isolated and cultured from obese Zucker (fa/fa) rats", "format": "cell-based, rat", "details": "inhibition of glucose output compared to glucagon stimulated cells", "description": "Inhibition of Glucose Output from Hepatocytes Isolated and Cultured from Obese Zucker (fa/fa) Rats and Their Lean Controls\nCulturing of Hepatocytes: Isolated hepatocytes were plated on 12 well rat-tail collagen coated plates at a cell density of 5×10(5) cells/ml (approximately 1 ml of cell suspension per well). Following a one hour attachment period in which plates were incubated in a CO2 incubator at 37 deg C. (95% O2, 5% CO2), the supernatant containing unattached hepatocytes was removed and replaced with fresh media (1 ml/well) containing 1 μM dexamethasone and 100 pM insulin. Cells were maintained at 37 deg C. for 48 hours in a 95% O2, 5% CO2 environment. At the end of the first 24 hours, the media was aspirated off of the wells and replaced with fresh media containing the same concentrations of dexamethasone and insulin as described earlier. Treatment with Drugs and Assessment of Glucose Output: Drugs were routinely added with fresh media 24 hours after the initial attachment period. Eighteen hours later, media was aspirated and 500 μl of fresh Hank's buffer, Buffer D (glucose-free) supplemented with hormones, gluconeogenic substrates and drug(s) was added to each well and incubated for 4 hours. At the end of the 4 hour incubation, media from each well was removed and assayed for glucose content using the hexokinase/glucose-6-phosphate dehydrogenase coupled assay on the Boehringer Mannheim model 911 auto analyzer. Glucose concentration was expressed as μg/ml. Three of the plates from each treated group were frozen for subsequent determination of protein content. Two plates from each treatment group were used to assess the cytotoxicity of drug(s) and other agents as determined by the MTT (tetrazolium) dye reduction method (see below).\nProtein test procedure: Three plates with no insulin treatment and three plates with 10^−8 M insulin treatment were used for protein determination. After supernatant has been removed for determination of glucose output the plates were frozen and stored at −20 deg C. until ready to assay for protein content. Prior to determination of protein the plates were defrosted at room temperature for 15 minutes. An aliquot of 1 ml 0.1 N NaOH was added to each well. Plates were incubated at 4 deg C. overnight. Solutions for measurement of protein content were mixed by pipetting the NaOH solution up and down several time with a 1 ml pipette and then transferring to a small polyethylene tube. Protein determination was based on that of the Pierce BCA protein assay protocol (Pierce cat. no. 23223). A set of protein standards (0.2, 0.4, 0.6, 0.8, and 1 mg/ml BSA) was prepared by serial dilution of 1 mg/ml bovine serum albumin with 0.1 N NaOH, and 40 μl of each standard, or control blank was pipetted into a 96-well plate in duplicate. Each unknown protein sample (40 μl) was tested in triplicate. An aliquot of 200 μl of BCA protein assay reagent (consisting of 50 parts Reagent A with 1 part Reagent B) was added to each well. Samples were mixed with a Titertek pipette. The microtiter plate was covered with sealing tape and incubated at room temperature for 1 hour. After incubation, the sealing tape was removed and absorbance measured on a plate reader (Uvmax kinetic microplate reader, Molecular Devices) at 570 nm. A standard curve was prepared by plotting the blank-corrected absorbance against known protein concentrations, and protein concentrations were then determined for each unknown.\nMeasurements and Calculations: Glucose output was calculated as μg glucose/mg protein/hour, and inhibition of glucose output was calculated as percent inhibition of glucose output when compared to glucagon stimulated cells. Cytotoxicity was determined using the MTT dye reduction assay and data were expressed as percent inhibition of MTT dye reduction compared to control cells. […]"}, "diabetic ob/ob mice [2]": {"tested_on": "diabetic ob/ob mice", "experiment": "Hypoglycemic effect in diabetic ob/ob mice", "format": "in vivo, mouse", "description": "Hypoglycemic Effect in Diabetic OB/OB Mice\nProcedure: In each study, male or female ob/ob (C57 B1/6J) mice and their mean litermates (ob/+ or +/+, Jackson Laboratories) ages 2 to 5 months (10 to 65 g) were randomized according to plasma glucose into 4 groups of 10 mice. The mice were housed 5 per cage and were maintained on normal rodent chow with water ad libitum. Mice receive compound daily by gavage (suspended in 0.5 ml of 0.5% methyl cellulose); dissolved in the drinking water; or admixed in the diet. The dose of compounds given ranges from 2.5 to 200 mg/kg body weight/day. Body weight of fed animals was measured at the beginning of each week and doses for the entire week were calculated using this weight and were expressed in terms of the active moiety of the compound. Control mice receive vehicle only. […]\nMeasurements: The plasma was isolated by centrifugation and the concentration of glucose was measured enzymatically on an Abbott V. P. Analyzer and the plasma concentration of insulin was determined by radioimmunoassay (Heding, 1972)\nAnalysis of variance followed by Dunnett's Comparison Test (one-tailed) was used to estimate the significant difference between the plasma glucose values from the control group and the individual compound treated groups (CMS SAS Release 5.18). A compound will be considered active if the difference has a p<0.05."}, "diabetic ob/ob mice [3]": {"tested_on": "diabetic ob/ob mice", "details": "reference compound, 20 mg/kg/day; cited from earlier work"}}, "data": [{"molecule": "O=S(=O)(Nc1ccc2c(OCc3ccc(-c4ccc(C(F)(F)F)cc4)cc3F)cccc2c1)C(F)(F)F", "note": "[Example 5, C,C,C-Trifluoro-N-[5-(3-fluoro-4′-trifluoromethyl-biphenyl-4-ylmethoxy)-naphthalen-2-yl]-methanesulfonamide]", "values": [{"measurement": "IC50", "setting": "[1]; Rattus norvegicus, Hepatocyte", "value": 6.3, "unit": "µM"}, {"measurement": "melting point", "value": "98 to 100", "unit": "°C"}]}, {"molecule": "O=S(=O)(Nc1ccc2c(OCc3cccc(OCc4ccc(-c5ccc6ccccc6c5)cc4)c3)cccc2c1)C(F)(F)F", "note": "[Example 14, N-[5-(4-naphthalen-2-yl-benzyloxy-3-ylmethoxy)-naphthalen-2-yl]-C,C,C-trifluoro-methanesulfonamide]", "values": [{"measurement": "IC50", "setting": "[1]", "value": 10.4, "unit": "µM"}]}, {"molecule": "O=S(=O)(Nc1ccc2c(OCc3cccc(-c4ccccc4)c3)cccc2c1)C(F)(F)F", "note": "[Example 27]", "values": [{"measurement": "REDUCTION IN PLASMA GLUCOSE Day 3 (6 hr) p.o.", "setting": "diabetic ob/ob mice [2]; 10 mg/kg", "value": "−31% (10 mg/kg)"}, {"measurement": "IC50", "setting": "[1]", "value": 7, "unit": "µM"}]}, {"molecule": "O=S(=O)(Nc1ccc2c(OCc3ccc(-c4ccc(Cl)c(Cl)c4)cc3Cl)cccc2c1)C(F)(F)F", "note": "[Example 30, C,C,C-Trifluoro-N-[5-(3,3′,4′-trichloro-biphenyl-4-ylmethoxy)-naphthalen-2-yl]-methanesulfonamide]", "values": [{"measurement": "REDUCTION IN PLASMA GLUCOSE Day 1 (6 hr) p.o.", "setting": "diabetic ob/ob mice [2]; 25 mg/kg", "value": "−6% (25 mg/kg)"}, {"measurement": "REDUCTION IN PLASMA GLUCOSE Day 3 (6 hr) p.o.", "setting": "diabetic ob/ob mice [2]; 25 mg/kg", "value": "−11% (25 mg/kg)"}, {"measurement": "IC50", "setting": "[1]; Rattus norvegicus, Hepatocyte", "value": 3.1, "unit": "µM"}, {"measurement": "melting point", "value": "169 to 170", "unit": "°C"}]}, {"molecule": "O=S(=O)(Nc1ccc2c(OCc3ccc(-c4ccc(Cl)cc4)cc3Cl)cccc2c1)C(F)(F)F", "note": "[Example 31, N-[5-(3,4′-Dichloro-biphenyl-4-ylmethoxy)-naphthalen-2-yl]-C,C,C-trifluoro-methanesulfonamide]", "values": [{"measurement": "REDUCTION IN PLASMA GLUCOSE Day 1 (6 hr) p.o.", "setting": "diabetic ob/ob mice [2]; 5 mg/kg", "value": "−23% (5 mg/kg)"}, {"measurement": "REDUCTION IN PLASMA GLUCOSE Day 3 (6 hr) p.o.", "setting": "diabetic ob/ob mice [2]; 5 mg/kg", "value": "−22% (5 mg/kg)"}, {"measurement": "IC50", "setting": "[1]; Rattus norvegicus, Hepatocyte", "value": 2.6, "unit": "µM"}, {"measurement": "melting point", "value": "176 to 178", "unit": "°C"}]}, {"molecule": "O=S(=O)(Nc1ccc2c(OCc3csc(-c4ccc(F)cc4F)n3)cccc2c1)C(F)(F)F", "note": "[Example 46, N-{5-[2-(2,4-Difluoro-phenyl)-thiazol-4-ylmethoxy]-naphthalen-2-yl}-C,C,C-trifluoro-methanesulfonamide]", "values": [{"measurement": "IC50", "setting": "[1]; Rattus norvegicus, Hepatocyte", "value": 2.8, "unit": "µM"}, {"measurement": "melting point", "value": "191 to 192", "unit": "°C"}]}, {"molecule": "O=S(=O)(Nc1ccc2c(OCc3csc(-c4ccc(C(F)(F)F)cn4)n3)cccc2c1)C(F)(F)F", "note": "[Example 52, C,C,C-Trifluoro-N-{5-[2-(5-trifluoromethyl-pyridin-2-yl)-thiazol-4-yl-methoxy]naphthalen-2-yl}-methanesulfonamide]", "values": [{"measurement": "IC50", "setting": "[1]; Rattus norvegicus, Hepatocyte", "value": 12, "unit": "µM"}, {"measurement": "melting point", "value": "197 to 198", "unit": "°C"}]}, {"molecule": "COc1ccc(-c2nc(COc3cccc4cc(NS(=O)(=O)C(F)(F)F)ccc34)cs2)cc1", "note": "[Example 53, C,C,C-Trifluoro-N-{5-[2-(4-methoxy-phenyl)-thiazol-4-ylmethoxy]-naphthalen-2-yl}-methanesulfonamide]", "values": [{"measurement": "IC50", "setting": "[1]; Rattus norvegicus, Hepatocyte", "value": 9.5, "unit": "µM"}, {"measurement": "melting point", "value": "151 to 152", "unit": "°C"}]}, {"molecule": "O=S(=O)(Nc1ccc2c(OCc3csc(-c4ccc(C(F)(F)F)cc4)n3)cccc2c1)C(F)(F)F", "note": "[Example 57, N-{5-[2-(4-trufluoromethyl-phenyl)-thiazol-4-ylmethoxy]-naphthalen-2-yl}-C,C,C-trifluoro-methanesulfonamide]", "values": [{"measurement": "REDUCTION IN PLASMA GLUCOSE Day 3 (6 hr) p.o.", "setting": "diabetic ob/ob mice [2]; 10 mg/kg", "value": "−33% (10 mg/kg)"}, {"measurement": "IC50", "setting": "[1]", "value": 1.5, "unit": "µM"}]}, {"molecule": "sodium metavanadate", "values": [{"measurement": "lowering in plasma glucose", "setting": "diabetic ob/ob mice [3]", "value": "significant lowering in plasma glucose"}]}]}
